SMILES strings stand for the structures.

Assay type in all cases: functional, cell-based
The target in assay [1] is T1, Taste receptor type 2 member 1 (Homo sapiens) (UniProt Q9NYW7).
T1 sequence (whole entry): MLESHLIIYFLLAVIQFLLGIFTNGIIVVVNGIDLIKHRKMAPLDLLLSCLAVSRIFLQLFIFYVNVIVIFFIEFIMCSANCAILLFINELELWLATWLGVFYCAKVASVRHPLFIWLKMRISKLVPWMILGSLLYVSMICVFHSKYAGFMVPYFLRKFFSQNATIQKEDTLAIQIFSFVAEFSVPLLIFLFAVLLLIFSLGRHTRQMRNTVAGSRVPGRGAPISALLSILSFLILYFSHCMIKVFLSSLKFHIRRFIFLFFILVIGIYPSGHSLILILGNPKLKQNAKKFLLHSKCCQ
Nature of the assay: Activation of full-length human TAS2R1 expressed in HEK293T/Galpha16-gustducin 44 cells assessed as effect on calcium flux by measuring deltaF/F0 ratio at 50 mM by Fluo-4 dye based FLIPR assay.

Assay [2] has as its target T1, Taste receptor type 2 member 1 (Homo sapiens). Nature of the assay: Activation of full-length human TAS2R1 expressed in HEK293T/Galpha16-gustducin 44 cells assessed as effect on calcium flux by measuring deltaF/F0 ratio at 25 mM by Fluo-4 dye based FLIPR assay. (In general: Calcium flux is commonly read through the fluorescence of an indicator in the cells.)
Assay [3] deals with T2, Taste receptor type 2 member 31 (Homo sapiens) (UniProt P59538).
T2 sequence (whole entry): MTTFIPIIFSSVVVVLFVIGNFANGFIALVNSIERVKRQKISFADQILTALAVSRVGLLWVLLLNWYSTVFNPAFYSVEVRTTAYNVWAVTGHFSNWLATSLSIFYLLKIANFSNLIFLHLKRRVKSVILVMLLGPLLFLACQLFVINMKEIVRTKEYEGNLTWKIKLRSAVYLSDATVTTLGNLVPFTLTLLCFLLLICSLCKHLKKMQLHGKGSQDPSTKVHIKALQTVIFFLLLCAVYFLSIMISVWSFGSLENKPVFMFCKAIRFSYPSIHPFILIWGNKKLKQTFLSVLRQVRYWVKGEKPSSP
The assay is described as follows: Activation of full-length human TAS2R44 expressed in HEK293T/Galpha16-gustducin 44 cells assessed as effect on calcium flux by measuring deltaF/F0 ratio at 25 mM by Fluo-4 dye based FLIPR assay (reference value: […] +/ - 0.017).

Assay [4] addresses T3, Taste receptor type 2 member 10 (Homo sapiens) (UniProt Q9NYW0).
T3 sequence (whole entry): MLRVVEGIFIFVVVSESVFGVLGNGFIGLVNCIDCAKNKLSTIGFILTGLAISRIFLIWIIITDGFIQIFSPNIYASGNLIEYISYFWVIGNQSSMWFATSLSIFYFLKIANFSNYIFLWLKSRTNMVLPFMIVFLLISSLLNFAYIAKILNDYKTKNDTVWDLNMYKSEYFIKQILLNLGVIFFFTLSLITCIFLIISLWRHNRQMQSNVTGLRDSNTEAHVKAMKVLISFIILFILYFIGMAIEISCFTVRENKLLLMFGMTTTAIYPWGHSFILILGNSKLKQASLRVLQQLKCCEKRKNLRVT
Nature of the assay: Activation of full-length human TAS2R10 expressed in HEK293T/Galpha16-gustducin 44 cells assessed as effect on calcium flux by measuring deltaF/F0 ratio at 25 mM by Fluo-4 dye based FLIPR assay.

Assay [5] addresses T2, Taste receptor type 2 member 31 (Homo sapiens). Nature of the assay: Activation of full-length human TAS2R44 expressed in HEK293T/Galpha16-gustducin 44 cells assessed as effect on calcium flux by measuring deltaF/F0 ratio at 1.5625 mM by Fluo-4 dye based FLIPR assay (reference value: 0.017 +/ - 0.008).
The target of assay [6] is T3, Taste receptor type 2 member 10 (Homo sapiens). Nature of the assay: Activation of full-length human TAS2R10 expressed in HEK293T/Galpha16-gustducin 44 cells assessed as effect on calcium flux by measuring deltaF/F0 ratio at 12.5 mM by Fluo-4 dye based FLIPR assay.
In assay [7] the target is T2, Taste receptor type 2 member 31 (Homo sapiens). The assay is described as follows: Activation of full-length human TAS2R44 expressed in HEK293T/Galpha16-gustducin 44 cells assessed as effect on calcium flux by measuring deltaF/F0 ratio at 100 mM by Fluo-4 dye based FLIPR assay (reference value: 0.021 +/ - 0.012).
For assay [8] the target is unchanged. Nature of the assay: Activation of full-length human TAS2R44 expressed in HEK293T/Galpha16-gustducin 44 cells assessed as effect on calcium flux by measuring deltaF/F0 ratio at 12.5 mM by Fluo-4 dye based FLIPR assay (reference value: […] +/ - 0.014).

Turning to `OC[C@H]1O[C@H](O[C@]2(CCl)O[C@H](CCl)[C@@H](O)[C@@H]2O)[C@H](O)[C@@H](O)[C@H]1Cl` [SUCRALOSE], the Ratio in assay [1] was 0.197; in assay [2] it was 0.104; in assay [3] it was 0.197; in assay [4] it was 0.087; in assay [5] it was 0.026; in assay [6], 0.059. Moreover, the Ratio in assay [7] is 0.26; in assay [8], 0.109.

The record behind these values is ChEMBL document CHEMBL4417621, “Methods to identify tas2r modulators” (2013).
